Assay results reported in ChEMBL document CHEMBL1149086, “Antimalarial and antitumor evaluation of novel C-10 non-acetal dimers of 10beta-(2-hydroxyethyl)deoxoartemisinin” (J Med Chem, 2004).

System: Plasmodium falciparum
Assay: In vitro antimalarial activity against Plasmodium falciparum K1 by [3H]hypoxanthine uptake
Format: functional, organism-based

C[C@@H]1CC[C@H]2[C@@H](C)C(=O)O[C@@H]3O[C@@]4(C)CC[C@@H]1[C@]32OO4 [ARTEMISININ]
IC50: 12.3 nM
